Values of other authors in patent publication US20250170146A1, “NIRAPARIB AND ABIRATERONE ACETATE PLUS PREDNISONE TO IMPROVE CLINICAL OUTCOMES IN PATIENTS WITH METASTATIC CASTRATION-RESISTANT PROSTATE CANCER AND HRR ALTERATIONS” (JANSSEN PHARMACEUTICA NV, priority 2022, published 2025).
Where two headings read alike, the source gives them in different places.

Tests used:
[1] = molecular target: T1, CYP2C8 (Homo sapiens, UniProt P10632); settings: pioglitazone with a single dose of 1,000 mg AA; healthy subjects
T1 construct: host or cells: healthy subjects (in vivo; the subjects' own enzyme)
T1 sequence (P10632 1-490): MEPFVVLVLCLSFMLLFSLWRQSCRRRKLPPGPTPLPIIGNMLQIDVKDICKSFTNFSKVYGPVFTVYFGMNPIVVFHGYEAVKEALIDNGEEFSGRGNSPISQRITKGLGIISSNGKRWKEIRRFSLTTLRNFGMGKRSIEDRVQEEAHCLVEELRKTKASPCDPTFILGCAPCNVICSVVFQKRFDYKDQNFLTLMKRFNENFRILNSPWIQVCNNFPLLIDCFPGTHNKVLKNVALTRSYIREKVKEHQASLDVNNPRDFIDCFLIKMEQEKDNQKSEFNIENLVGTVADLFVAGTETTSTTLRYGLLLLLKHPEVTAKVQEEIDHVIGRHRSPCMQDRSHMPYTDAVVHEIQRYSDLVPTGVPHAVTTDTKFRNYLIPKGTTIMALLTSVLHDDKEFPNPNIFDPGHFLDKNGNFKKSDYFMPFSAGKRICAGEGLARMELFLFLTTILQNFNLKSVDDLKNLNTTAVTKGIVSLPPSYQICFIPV

[2] = system: first line (pre-docetaxel) mCRPC; settings: Prevail
[3] = system: post-docetaxel mCRPC; settings: Affirm
[4] = system: mCRPC; settings: TAX-327
[5] = system: L2+ mCRPC HRR-positive

SMILES: CC(=O)O[C@H]1CC[C@@]2(C)C(=CC[C@@H]3[C@@H]2CC[C@]2(C)C(c4cccnc4)=CC[C@@H]32)C1 [AA, Abiraterone acetate]
- increase in AUC of pioglitazone [1]: 46%

SMILES: CNC(=O)c1ccc(N2C(=S)N(c3ccc(C#N)c(C(F)(F)F)c3)C(=O)C2(C)C)cc1F [Enzalutamide]
- 12-month rPFS milestone [2]: 65%
- investigator assessed rPFS [2]: 20 months
- median OS [2]: 35.3 months
- median rPFS [2]: not reached
- objective response rate (ORR) [2]: 59%
- rPFS benefit by BICR Hazard Ratio [2]: 0.32
- rPFS risk reduction by BICR [2]: 68%
- OS [3]: 18.4 months
- OS benefit vs placebo [3]: 4.8 months
- PSA50 response [3]: 54%
- QoL response rate [3]: 43%
- TTPSA progression [3]: 8.3 months
- rPFS [3]: 8.3 months

SMILES: CC(=O)O[C@@]12CO[C@@H]1C[C@H](O)[C@@]1(C)C(=O)[C@H](O)C3=C(C)[C@@H](OC(=O)[C@H](O)[C@@H](NC(=O)OC(C)(C)C)c4ccccc4)C[C@@](O)([C@@H](OC(=O)c4ccccc4)[C@H]21)C3(C)C [docetaxel]
- OS benefit vs mitoxantrone [4]: 2.4 months
- PSA50 response [4]: 45%
- overall survival (OS) [4]: 18.9 months
- quality of life (QoL) response [4]: 22%
- tumor response [4]: 12%

SMILES: O=C1c2c(O)ccc(O)c2C(=O)c2c(NCCNCCO)ccc(NCCNCCO)c21 [mitoxantrone]
- PSA50 response [4]: 32%
- overall survival (OS) [4]: 16.5 months
- quality of life (QoL) response [4]: 13%
- tumor response [4]: 7%

SMILES: Cc1ccc(S(=O)(=O)O)cc1.NC(=O)c1cccc2cn(-c3ccc([C@@H]4CCCNC4)cc3)nc12 [niraparib, 2-[4-[(3S)-piperidin-3-yl]phenyl]-2H-indazole-7-carboxamide]
- median OS ([5]; L2+ mCRPC BRCA patients): 13.01 months
- median rPFS ([5]; L2+ mCRPC BRCA patients): 8.08 months
- median time to PSA progression ([5]; L2+ mCRPC BRCA patients): 5.13 months
- median time to symptomatic skeletal event ([5]; L2+ mCRPC BRCA patients): 13.80 months
- overall response rate (ORR) ([5]; L2+ mCRPC BRCA patients): 34.2%
- ORR ([5]; L2+ mCRPC non-BRCA patients): 10.6%
- median OS ([5]; non-BRCA patients): 9.63 months
- median rPFS ([5]; non-BRCA patients): 3.71 months
- median time to PSA progression ([5]; non-BRCA patients): 3.65 months
- median time to symptomatic skeletal event ([5]; non-BRCA patients): 10.35 months
